ChEMBL document CHEMBL5244240, “MmpL3 inhibitors as antituberculosis drugs” (Eur J Med Chem, 2020)
In brackets after ≈: the same amount, converted by molar mass.

Key:
[1] = tested on: Mycobacterium tuberculosis; assay: Antitubercular activity against multidrug resistant Mycobacterium tuberculosis; assay type: functional
[2] = tested on: Mycobacterium tuberculosis; assay: Antitubercular activity against low oxygen adapted Mycobacterium tuberculosis H37Rv; assay type: functional

| Compound | MIC [1] [µM] | MIC [2] [µM] |
| --- | --- | --- |
| CC1(C)CCC(NC(=O)c2cc3c(F)cc(F)cc3[nH]2)CC1 | < 0.04 | – |
| Cc1c(CN2CCOCC2)cc(-c2ccc(C(C)C)cc2)n1-c1ccc(F)cc1 | – | 28.7 (≈ 11.3 µg/mL) |
| COc1ccc(-c2cc(CN3CCSCC3)c(C)n2-c2ccc(F)cc2)cc1 | – | 10.1 (≈ 4 µg/mL) |
| CC1(C)CCC(NC(=O)c2cc3c(Cl)cc(Cl)cc3[nH]2)CC1 | < 0.04 | – |
